Laboratory results from US20210292755A1, “NOVEL DOUBLE-STRANDED OLIGONUCLEOTIDES FOR THE TREATMENT OF CANCER” (SELEXEL, priority 2016, published 2021).
“Also recorded” adds a separate entry of the source.

What was measured:
γH2AX [1] = assay: Western blot of γH2AX after siRNA transfection; format: cell-based, human; conditions: PC3 cells, 72 hours after transfection
Procedure: (§1) All the cells used in the following examples are human cells and express H2AX.
(§2) The cells are cultured in DMEM or RPMI supplemented with 10% fetal calf serum, or as recommended by the ATCC. When indicated, they are transfected with siRNA using lipofectamine (Life Technologies), following the supplier's protocol. The number of living cells after the indicated treatments was quantified by measuring their metabolic activity by the WST1 test according to the supplier's indications (Roche).
(§3) The effect of siRNA transfection and/or treatments by different chemotherapeutic agents on gene expression was measured: • by RT-qPCR quantification of mRNAs extracted by a conventional phenol-chloroform method (Trizol). The amount of RNA was normalized by measuring the cyclophilin A-encoding mRNA which is not regulated by AR (delta delta CT method). • by Western blotting on protein extracts. The antibodies used are: AR: Santacruz, N-20 sc-816; H2AX: Merck Millipore ref 07-627; Tubulin: Sigma T6199; Actin: Merck Millipore MAB 1501; γH2AX: Merck Millipore 05-636. […] The antibodies used are the following: γH2AX: Merck Millipore 05-636; 53BP1: Novus, NB 100-304.

AR-encoding mRNA = assay: RT-qPCR of AR-encoding mRNA after siRNA transfection; format: cell-based, human; conditions: for AR mRNA expression: both lines
Procedure: as §1, §2, §3

[2] = siRNA distribution by RT-qPCR, continuous subcutaneous osmotic pump; format: in vivo; conditions: 2 mg/kg/day continuous subcutaneous, 3 days, 22RV1 tumor-bearing mice; 10 mM citrate buffer pH 6 with oxidized LDL (1:0.1 weight:weight) versus 154 mM NaCl
Text: To quantify a siRNA in the biological samples, the inventors have developed a reverse transcription method followed by a quantitative PCR (RT-qPCR). For each siRNA, a specific stem-loop primer, having 8 overflowing nucleotides is synthesized, the 8 nucleotides being complementary to the 8 nucleotides of the 3′ end of the siRNA guide (antisense) strand. After a reverse transcription step, the product obtained is amplified by PCR using two primers, one hybridizing with the region corresponding to the loop of the reverse transcription primer. The 12 nucleotides at 3′ of the second primer having a DNA sequence corresponding to the 12 nucleotides of the 5′ end of the newly synthesized cDNA after reverse transcription of the siRNA guide strand. Detection of the amplification is carried out continuously by the degradation of a Taqman fluorescent probe or by incorporation of SybrGreen.
A range of double stranded siRNAs, from 10^3 to 10^9 copies in the RT reaction, diluted in water is made and treated together with the samples by RT-qPCR.
The biological samples in which siRNAs are quantified are either serum or total RNAs extracted from tissue fragments of known weight assumed to contain siRNA. […]
At the end of the experiment, the animals are sacrificed, the serum, the tumors and different tissues are dissected, the extracted RNAs and the siRNAs present in these RNAs are quantified. […]

γH2AX [3] = assay: Indirect immunofluorescence of γH2AX, bleomycin-treated transfected cells; format: cell-based, human; conditions: 72 hours after transfection
Procedure: (§4) FIG. 8: Immuno detection of γH2AX (first column) and 53BP1 (second column) in C4-2 cells treated for 6 h with bleomycin ([…]) or the vehicle added 72 h after transfection of cells by a control siRNA (Cont), siAR7 siRNA, or siARH2AX-1.
as §1, §2, §3
(§5) In the experiment shown in FIG. 8, C4-2 cells were transfected with a control or siARH2AX-1 siRNA. 72 hours after transfection, the cells were then treated for 6 hours with […] of bleomycin or the corresponding vehicle.

PSA-encoding mRNA = assay: RT-qPCR of PSA-encoding mRNA after siRNA transfection; format: cell-based, human; conditions: LNCaP or C4-2 cells, both lines, 72 hours after transfection
Procedure: as §1, §2, §3
In the experiment shown in FIG. 4, the LNCaP or C4-2 tumor cells were transfected with the following siRNAs: Cont, siAR7 or siARH2AX-1.

53BP1 = assay: Indirect immunofluorescence of 53BP1, bleomycin-treated transfected cells; format: cell-based, human
Procedure: as §4, §1, §2, §3, §5

H2AX-encoding mRNA = assay: RT-qPCR of H2AX-encoding mRNA after siRNA transfection; format: cell-based, human
Procedure: as §1, §2, §3

MDA MB-453 cells = assay: WST1 cell viability test; format: cell-based, human; conditions: 72 hr after transfection
Procedure: as §1, §2

22RV1 cells = assay: WST1 cell viability test; format: cell-based, human; conditions: 72 hr after transfection
Procedure: as §1, §2

C4-2 cells = assay: WST1 cell viability test; format: cell-based, human
Procedure: as §1, §2

MDA MB231 cells = assay: WST1 cell viability test; format: cell-based, human
Procedure: as §1, §2

LNCaP cells = assay: WST1 cell viability test; format: cell-based, human
Procedure: as §1, §2

U87 cells = assay: WST1 cell viability test; format: cell-based, human; conditions: 72 hr after transfection
Procedure: as §1, §2

WM266-4 cells = assay: WST1 cell viability test; format: cell-based, human
Procedure: as §1, §2

[4] = tested on: 22RV1 human prostatic tumor; assay: Subcutaneous tumor volume in mice; format: in vivo; conditions: 2 mg/kg/day
Procedure: (§6) Tumors are obtained by subcutaneous injection of tumor cells into the flank of Nude mice. Only animals on which tumor uptake is found are included in the study and randomized to receive treatment or control treatment.
(§7) When indicated, the continuous administration of siRNA is carried out by implantation of an Alzet osmotic pump subcutaneously on the back of the mice, on the opposite side to the tumor when the mice wear one. The concentration of siRNA in the pump is adjusted to deliver the indicated amount in mg/kg/day taking into account the pump flow rate indicated by the manufacturer.
The subcutaneous tumors volume is estimated by measuring with a calliper the largest (D), the smallest (d) diameter of the tumors and their height (h). The volume is calculated by the formula V=D×d×h×Pi/6.

human AR mRNA = assay: AR mRNA in tibia of 22RV1 tumor-bearing mice; format: in vivo; conditions: Nude mice with 22RV1 tumors, 0.2 mg/kg/day continuous subcutaneous, 3 weeks, in 154 mM NaCl
Procedure: Left panel: Expression level of human AR mRNA in nude mouse tibia carrying 22RV1 human prostate tumors in vehicle-treated mice (154 mM NaCl, black bar) or siARH2AX-1 diluted in this vehicle (gray bar) and administered subcutaneously continuously for 3 weeks (mean±SEM, n=7 values relative to the mean value of the NaCl group).
as §6
When indicated, the continuous administration of siRNA is carried out by implantation of an Alzet osmotic pump subcutaneously on the back of the mice, on the opposite side to the tumor when the mice wear one. […]
(§8) At the end of the experiment, the animals are sacrificed, the serum, the tumors and different tissues are dissected, the extracted RNAs and the siRNAs present in these RNAs are quantified.
(§9) In the experiment shown in FIG. 14, 22RV1 cells were implanted in Nude mice. Once the tumor was detected, Alzet pumps administering either 0.2 mg/kg/day siARH2AX-1 siRNA formulated in saline (154 mM NaCl), or the vehicle alone, were implanted for 3 weeks. At the end of treatment, the bones (tibia) were recovered to quantify siARH2AX-1, and the androgen receptor- and the HPRT-encoding mRNAs of human origin.

AR = assay: Western blot of AR after siRNA transfection; format: cell-based, human; conditions: C4-2 cells, 72 h after transfection
Procedure: as §1, §2, §3

[5] = tested on: 22RV1 human prostate tumors; assay: Bone metastases of 22RV1 tumors in Nude mice (human HPRT mRNA); format: in vivo; conditions: 0.2 mg/kg/day continuous subcutaneous, 3 weeks, in 154 mM NaCl
Procedure: Right panel: Metastatic load in bone as measured by the expression of human HPRT mRNA in both groups of animals. Each bar represents bone metastatic load in a mouse.
as §6, §7, §8, §9

H2AX = assay: Western blot of H2AX after siRNA transfection; format: cell-based, human
Procedure: as §1, §2, §3

[6] = C4-2 cells, 48 hours after transfection, relative to control siRNA
[7] = 40 μl of etoposide added 24 hours after transfection, WST1 48 h later

For “siARH2AX-1: bispecific AR-H2AX siRNA, SEQ ID NO: 1 GACUCAGCUGCCCCAUCCA[dT][dT] and SEQ ID NO: 2 UGGAUGGGGCAGCUGAGUC[dT][dT] (chain 1 GACUCAGCUGCCCCAUCCANN; chain 2 UGGAUGGGGCAGCUGAGUCNN; 3' dTdT overhangs, chemistry not fully specified)”, the γH2AX phosphorylated form (γH2AX [1]) was “inhibition of its γH2AX phosphorylated form”, the “AR expression (mRNA)” value (AR-encoding mRNA; [6]) was “inhibit AR expression in a similar manner” and the “AR mRNA expression” value (AR-encoding mRNA; LNCaP or C4-2 cells, 72 hours after transfection) was “inhibit the expression of AR and PSA”. The “AR mRNA expression” value (AR-encoding mRNA; LNCaP or MDA MB-453 cells, 72 h after transfection) was “inhibits the expression of the two AR- and H2AX-encoding mRNAs”, the “concentration of siARH2AX-1 in serum, different organs and tumors” value [2] was “increases the concentration” and the “expression of H2AX (immunofluorescence)” value (γH2AX [3]; C4-2 cells, without bleomycin, compared to control condition) was “very small compared to the control condition”. The “γH2AX labeling after bleomycin” value (γH2AX [3]; siRNA-transfected C4-2 cells, bleomycin 6 hours) was “no increase H2AX”, the “PSA mRNA expression” value (PSA-encoding mRNA) was “inhibit the expression of AR and PSA” and the “expression of 53BP1” value (53BP1; C4-2 cells, 72 hours after transfection, without bleomycin, compared to control condition) was “comparable”. For the same substance, the DNA repair (53BP1; conclusion from γH2AX/53BP1 experiment in C4-2 cells) was “inhibits DNA repair”, the “recruitment of 53BP1 to DNA lesions after bleomycin” value (53BP1; siRNA-transfected C4-2 cells, 72 hours after transfection, bleomycin 6 hours) was “no increase H2AX or recruitment of 53BP1” and the “H2AX expression (mRNA)” value (H2AX-encoding mRNA; [6]) was “much more effective than siAR2 siRNA in inhibiting H2AX expression”. The “inhibition of H2AX mRNA expression” value (H2AX-encoding mRNA; LNCaP or C4-2 cells, both lines, 72 hours after transfection) was “more than 90%”, the “H2AX mRNA expression” value (H2AX-encoding mRNA; LNCaP or MDA MB-453 cells, both lines, 72 h after transfection) was “inhibits the expression of the two AR- and H2AX-encoding mRNAs” and the “cell viability / proliferation” value (MDA MB-453 cells) was “inhibits the proliferation of all cell lines”. For the same substance, the “cell viability / proliferation” value (22RV1 cells) was “inhibits the proliferation of all cell lines”, the “cell viability / proliferation” value (C4-2 cells; 72 hr after transfection) was “inhibits the proliferation of all cell lines” and the cell viability (C4-2 cells; 90 hours after transfection) was “significantly reduced”. For the same substance, the “cell viability, siRNA combined with bleomycin” value (C4-2 cells; bleomycin (10 μM) added 48 hours after transfection, read 48 hours later, versus chemotherapeutic agent alone) was “potentiate to inhibit cell viability”, the “cell viability, siRNA combined with etoposide” value (“cell viability … with etoposide” below) (C4-2 cells; etoposide (10 μM) added 48 hours after transfection, read 48 hours later, versus chemotherapeutic agent alone) was “potentiate to inhibit cell viability” and the “cell viability … with etoposide” value (MDA MB231 cells; [7]) was “potentiate when combined”. The “cell viability / proliferation” value (MDA MB231 cells; 72 hr after transfection) was “inhibits the proliferation of all cell lines”, the cell viability (MDA MB231 cells; 90 hours after transfection) was “significantly reduced” and the “cell viability / proliferation” value (LNCaP cells; 72 hr after transfection) was “inhibits the proliferation of all cell lines”. For the same substance, the “cell survival, siRNA combined with bleomycin, versus addition of the separate effects” value (LNCaP cells; bleomycin (10 μM)) was “approximately twice as inhibitory”, the “cell viability / proliferation” value (U87 cells) was “inhibits the proliferation of all cell lines” and the “cell viability … with etoposide” value (WM266-4 cells; [7]) was “potentiate when combined”. The “cell viability / proliferation” value (WM266-4 cells; 72 hr after transfection) was “inhibits the proliferation of all cell lines”, the “tumor development, combination with etoposide” value ([4]; siARH2AX-1 2 mg/kg/day continuous subcutaneous plus etoposide intraperitoneal) was “potentiates the effect of these two treatments taken separately; also recorded: amplifies tumor growth inhibition” and the tumor development ([4]; siARH2AX-1 2 mg/kg/day continuous subcutaneous, 22 days, 10 mM citrate buffer pH 6 with 10 mM MgCl2) was “as effective as the high dose of etoposide; also recorded: effectively inhibits tumor development”. The “expression of the androgen receptor in the bones (tibia)” value (human AR mRNA) was “inhibit the expression of the androgen receptor”, the AR protein expression (AR) was “inhibits the expression of both AR and H2AX proteins” and the “number of mice spontaneously developing bone metastases” value [5] was “decrease in the number of mice spontaneously developing bone metastases”. The “size of bone metastases (human HPRT mRNA level in bone)” value [5] was “decrease in the size of these tumors”, the H2AX protein expression (H2AX; C4-2 cells, 72 h after transfection) was “inhibits the expression of both AR and H2AX proteins” and the H2AX protein expression (H2AX; PC3 cells, 72 hours after transfection) was “is inhibited”.
